Like-named read-outs stand apart in the source and are kept apart here.
How the values were obtained:
[1] = test system: SAHH; design: method as in PMID 24813734; settings: data from literature; cited from earlier work
[2] = design: method as in PMID 24813734; settings: long term exposure; cited from earlier work
[3] = biological target: T1, human S-adenosyl-homocysteine hydrolase (rSAHH) (Homo sapiens, UniProt P23526); experiment: SAHH inhibition, IC50 determination with recombinant SAHH (hydrolysis of SAH, Hcy determined with DTNB); format: biochemical
T1 sequence (P23526 whole entry): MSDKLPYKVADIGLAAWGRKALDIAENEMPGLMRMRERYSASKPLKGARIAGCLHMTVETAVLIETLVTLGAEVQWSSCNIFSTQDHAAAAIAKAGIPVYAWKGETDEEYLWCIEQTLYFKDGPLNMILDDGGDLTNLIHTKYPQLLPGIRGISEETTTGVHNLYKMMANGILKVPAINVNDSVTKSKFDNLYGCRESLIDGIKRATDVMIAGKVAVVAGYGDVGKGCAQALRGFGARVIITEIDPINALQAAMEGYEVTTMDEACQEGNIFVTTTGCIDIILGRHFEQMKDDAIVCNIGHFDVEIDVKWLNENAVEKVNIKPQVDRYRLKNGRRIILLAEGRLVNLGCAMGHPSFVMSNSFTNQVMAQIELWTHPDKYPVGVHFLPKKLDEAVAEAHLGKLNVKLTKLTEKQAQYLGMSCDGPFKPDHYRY
Protocol: The activity of SAHH was expressed in units (U), which were defined as 1 μmol of SAH catalyzed by the enzyme per minute. Specific enzymatic activities (aspec) were calculated through the division of the enzymatic activities by the total protein amount used per assay and are expressed in U/mg. […] All of the values shown correspond to the mean values of at least three independent experiments, each of which was conducted in duplicate and all of the calculations were performed using Origin version 8.5 software and GraphPad Prism 5.
Stock solution of compounds (1 mM) for enzyme inhibition was prepared in DMSO. Both enzymes and substrates are diluted in Tris-HCl (pH = 6.5) to specified concentration when used for IC50 determination.
SAH is hydrolysed by SAHH into Hcy and adenosine. And Hcy can be directly determined using Ellman reagent (DTNB)[17].

[4] = biological target: T1, human S-adenosyl-homocysteine hydrolase (rSAHH); experiment: Enzyme kinetics of SAHH-catalyzed hydrolysis of SAH; format: biochemical
Protocol: The activity of SAHH was expressed in units (U), which were defined as 1 μmol of SAH catalyzed by the enzyme per minute. Specific enzymatic activities (aspec) were calculated through the division of the enzymatic activities by the total protein amount used per assay and are expressed in U/mg. SAHH enzyme reacted with the SAH at different temperature and different pH, in order to identify its optimal reaction conditions. All of the values shown correspond to the mean values of at least three independent experiments, each of which was conducted in duplicate and all of the calculations were performed using Origin version 8.5 software and GraphPad Prism 5.
The enzyme kinetic parameters (Km and Kcat) were calculated by least-squares fitting of the activity data at various substrate concentrations to the Michaelis–Menten equation with Origin version 8.5 software (Microcal Software, Northampton, MA).

[5] = test system: brain homocysteine; design: method as in PMID 24813734; settings: reported by Converso; cited from earlier work
[6] = recombinant human SAHH, Tris-HCl pH 6.5, read-out: SAHH IC50

Nc1ncnc2c1ncn2[C@@H]1C=C(CO)[C@@H](O)[C@H]1O [NepA, Neplanocin A]
IC50 [1]: 1.5 nM
cytotoxicity [2]: cytotoxic upon long term exposure

COc1ccc(/C=C/C(=O)O)cc1 [Compound 11]
IC50 [3, 6]: 986 nM

CCOC(=O)c1ccc(N)cc1 [Compound 10]
IC50 [3, 6]: 1400 nM

COc1ccc(C=O)cc1 [Compound 2]
IC50 [3, 6]: 2130 nM

O=C(OO)c1ccc(Cl)cc1 [Compound 6]
IC50 [3]: 565 nM

O=C(O)/C=C/c1ccc(Cl)cc1 [Compound 12]
IC50 [3, 6]: 571 nM

COc1ccc(N)cc1 [Compound 9]
IC50 [3, 6]: 899 nM

Nc1ncnc2c1ncn2[C@@H]1O[C@H](CSCC[C@H](N)C(=O)O)[C@@H](O)[C@H]1O [SAH, S-adenosylhomocysteine]
Km ([4]; read-out: apparent Km of the hydrolytic reaction, substrate SAH): ~21.8 µM
Vmax ([4]; substrate SAH): 22.9 µM/min

Nc1ncc(F)c2c1ncn2[C@@H]1CC[C@@H](O)[C@H]1O [20 ^*]
IC50 [1]: 40 nM
effect on brain homocysteine [5]: reduce brain homocysteine in a dose-dependent manner

Fc1ccc(CBr)c(F)c1 [Compound 3]
IC50 [3]: 913 nM

O=C(O)c1ccc(F)cc1 [Compound 8]
IC50 [3, 6]: 679 nM

COC(=O)/C=C/c1ccc(CBr)cc1 [Compound 4]
IC50 [3, 6]: 814 nM

COc1cc(C=O)ccc1O [Compound 5]
IC50 [3, 6]: 1100 nM

On1nnc2ccccc21 [Compound 1]
IC50 [3]: 1240 nM

Oc1ccc(Cl)c(O)c1 [Compound 7]
IC50 [3]: 1110 nM

COc1cc(C=CCO)ccc1O [Compound 13, 4-(3-hydroxyprop-1-en-1-yl)-2-methoxyphenol]
IC50 [3, 6]: 34 nM

From paper PMC6445193 (Journal of Enzyme Inhibition and Medicinal Chemistry, 2017)
